Laboratory results reported in US11608323B2 (SYNGENTA LIMITED, priority 2013, dated 2023).

What was measured:
Assay type in all cases: in vivo
ECHCG [1] = experiment: Post-emergence herbicidal activity, glasshouse pot test; conditions: Echinochloa crus-galli; application post-emergence; rate 1000 g/Ha; evaluated after 13 days
Method in brief: (§1)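 Damage was rated 0-5 (5 = total) 13 days after a post-emergence spray of acetone/water (50:50) plus 0.5% Tween 20 formulation. Plants were sprayed at 8 days' growth and kept at 24/16° C, 14 h light, 65% humidity, watered twice daily.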

ZEAMX [2] = experiment: as above; conditions: Zea mays; application post-emergence; rate 1000 g/Ha; evaluated after 13 days
Method in brief: as §1

ABUTH [3] = experiment: as above; conditions: Abutilon theophrasti; application post-emergence; rate 1000 g/Ha; evaluated after 13 days
Method in brief: as §1

AMARE [4] = experiment: as above; conditions: Amaranthus retroflexus; application post-emergence; rate 1000 g/Ha; evaluated after 13 days
Method in brief: as §1

ALOMY [5] = experiment: as above; conditions: Alopecurus myosuroides; application post-emergence; rate 1000 g/Ha; evaluated after 13 days
Method in brief: as §1

SETFA [6] = experiment: as above; conditions: Setaria faberi; application post-emergence; rate 1000 g/Ha; evaluated after 13 days
Method in brief: as §1

ECHCG [7] = experiment: Pre-emergence herbicidal activity, glasshouse pot test; conditions: rate 1000 g/Ha, evaluated after 13 days, scale 0-5
Method in brief: (§2)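 Sow in pots of standard soil; after one day under glasshouse conditions, spray compound (acetone/water 50:50 formulation, 0.5% Tween 20, diluted in water). Grow on at 24/16 °C, 14 h light, 65% humidity with twice-daily watering. Assess at 13 days, 0–5 damage scale.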

ZEAMX [8] = experiment: as above; conditions: rate 1000 g/Ha, evaluated after 13 days, scale 0-5
Method in brief: as §2

ABUTH [9] = experiment: as above; conditions: rate 1000 g/Ha, evaluated after 13 days, scale 0-5
Method in brief: as §2

AMARE [10] = experiment: as above; conditions: rate 1000 g/Ha, evaluated after 13 days, scale 0-5
Method in brief: as §2

ALOMY [11] = experiment: as above; conditions: rate 1000 g/Ha, evaluated after 13 days, scale 0-5
Method in brief: as §2

SETFA [12] = experiment: as above; conditions: rate 1000 g/Ha, evaluated after 13 days, scale 0-5
Method in brief: as §2

Structure (SMILES)	Post-emergence herbicidal activity ECHCG (damage score 0-5) (ECHCG [1])	Post-emergence herbicidal activity ZEAMX (damage score 0-5) (ZEAMX [2])	Post-emergence herbicidal activity ABUTH (damage score 0-5) (ABUTH [3])	Post-emergence herbicidal activity AMARE (damage score 0-5) (AMARE [4])	Post-emergence herbicidal activity ALOMY (damage score 0-5) (ALOMY [5])	Post-emergence herbicidal activity SETFA (damage score 0-5) (SETFA [6])	ECHCG damage score, application pre-emergence (ECHCG [7])	ZEAMX damage score, application pre-emergence (ZEAMX [8])	ABUTH damage score, application pre-emergence (ABUTH [9])	AMARE damage score, application pre-emergence (AMARE [10])	ALOMY damage score, application pre-emergence (ALOMY [11])	SETFA damage score, application pre-emergence (SETFA [12])
CC(=O)Nc1cnc(N2C(=O)N(C)C(C)C2O)cc1C(F)(F)F (single isomer, unassigned) [Compound A56]	3	1	5	5	4	2	1	0	5	5	2	1
CCOC1C(O)N(c2cc(C(C)(F)F)ccn2)C(=O)N1C (stereo not shown) [Compound A59]	5	4	5	5	5	5	3	1	5	5	4	3
CC1NC(=O)N(c2cc(C(F)(F)F)ccn2)C1O (stereo not shown) [Compound A40]	4	1	5	5	4	3	3	2	4	5	2	2
Cc1cnc(N2C(=O)N(C)C(C)C2O)cc1C(F)(F)F (single isomer, unassigned) [Compound A51]	5	5	5	5	5	5	5	3	5	5	4	4
CCC1C(O)N(c2cc(C(F)(F)F)ccn2)C(=O)N1OC (single isomer, unassigned) [Compound A28]	5	2	4	4	5	5	4	2	3	5	4	5
COc1ncc(-c2cnc(N3C(=O)N(C)C(C)C3O)cc2C(F)(F)F)cn1 (stereo not shown) [Compound A22]	5	5	5	5	5	5	5	3	5	5	4	5
COC(OC)C1C(O)N(c2cc(C(F)(F)F)ccn2)C(=O)N1C (stereo not shown) [Compound A42]	0	1	4	4	2	2	0	0	1	4	0	3
CC1C(O)N(c2cc(C(F)(F)F)c(-c3cncnc3)cn2)C(=O)N1C (stereo not shown) [Compound A11]	5	4	5	5	4	5	4	3	5	5	4	5
COc1cnc(N2C(=O)N(C)C(C)C2O)cc1C(F)(F)F (stereo not shown) [Compound A12, 5-hydroxy-1-[5-methoxy-4-(trifluoromethyl)-2-pyridyl]-3,4-dimethyl-imidazolidin-2-one]	5	5	5	5	5	5	5	3	5	5	4	5
CN1C(=O)N(c2cc(C(F)(F)F)ccn2)C(O)C1CO (stereo not shown) [Compound A43]	5	2	5	1	1	0	1	0	5	2	1	2
COC1C(O)N(c2cc(C(F)(F)F)c(I)cn2)C(=O)N1C (stereo not shown) [Compound A18]	5	3	5	5	5	5	5	–	–	5	4	4
COC1C(O)N(c2cc(C(F)(F)F)c(-c3cncnc3)cn2)C(=O)N1C (stereo not shown) [Compound A15]	4	0	5	5	4	4	3	–	–	5	3	4
CCOC1C(O)N(c2cc(C(F)(F)F)c(I)cn2)C(=O)N1C (stereo not shown) [Compound A16]	5	2	5	5	5	5	5	–	–	5	4	4
CN1C(=O)N(c2cc(C(F)(F)F)c(I)cn2)C(O)C1O (stereo not shown) [Compound A17]	5	4	5	5	5	5	4	–	–	5	3	3
